The supplement of paper PMC4649846
Values joined by “and” are separate entries in the source; they are usually repeats but may differ in a detail not shown here. Equal values may be shown once.

Tests used:
[1] = test system: MDA-MB-231; settings: incubation time: 72 h
Procedure: (§1)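 MDA-MB-231 breast cancer cells were transfected with siBRCA1 or non-targeting siControl, then seeded 24 h later at 4000 cells/well in 384-well plates holding 198 drugs at 5 concentrations. Viability was read by CellTiter-Blue after 72 h at 37 °C. Dose-response curves were fitted in Dotmatics to give IC50 and a drug sensitivity score (DSS: area under the curve relative to the area between the 10% threshold and 100% inhibition, normalised by the log of the top response). The dose range is not stated. IC50 values of 8333.3 or 4166.7 nM mark no response (top dose), and 0.8333 nM is the lower limit.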

[2] = test system: MDA-MB-231; experiment: drug sensitivity score (DSS); higher = more sensitive; extreme values may be limits of the assay; settings: incubation time: 72 h
Procedure: as §1

[3] = siRNA: siControl (non-targeting)

SMILES | IC50 of cell viability ([1]; siRNA: siBRCA1) [nM] | IC50 of cell viability [1, 3] | drug sensitivity score ([2]; siRNA: siBRCA1) | drug sensitivity score [2, 3]
CN1CCC(COc2cnc(-c3cccc(Cn4nc(-c5cccc(C#N)c5)ccc4=O)c3)nc2)CC1 | 3770 | 4020 nM | 3.92 | 3.58
C[C@@]1(C(=O)Nc2ccc(F)nc2)CCCN1c1nc(Nc2cc(C3CC3)n[nH]2)c2cccn2n1 | > 4170 | 1190 nM | 3.5 | 7.43
CC(=O)O[C@@]12CO[C@@H]1C[C@H](O)[C@@]1(C)C(=O)[C@H](O)C3=C(C)[C@@H](OC(=O)[C@H](O)[C@@H](NC(=O)OC(C)(C)C)c4ccccc4)C[C@@](O)([C@@H](OC(=O)c4ccccc4)[C@H]21)C3(C)C [Docetaxel] | 2.71 | 1.57 nM and 1.83 nM | 32.7 and 31.2 | 33.3 and 33.8
CC1CCN(C(=O)CC#N)CC1N(C)c1ncnc2[nH]ccc12 (stereo in doubt) [Tasocitinib] | > 4170 | > 4170 nM | 0 | 0
O=C(Nc1c[nH]nc1-c1nc2ccc(CN3CCOCC3)cc2[nH]1)NC1CC1 [AT9283] | 267 | 173 nM | 16.5 | 18.6
COc1cc([C@@H]2c3cc4c(cc3[C@@H](O[C@@H]3O[C@@H]5CO[C@@H](C)O[C@H]5[C@H](O)[C@H]3O)[C@H]3COC(=O)[C@H]23)OCO4)cc(OC)c1O [Etoposide] | 91.9 | > 4170 nM | 10 | 2.9
COc1cc2nccc(Oc3ccc(NC(=O)Nc4cc(C)on4)c(Cl)c3)c2cc1OC [Tivozanib] | > 4170 | 2460 nM | 3.36 | 2.37
CN1CC[C@H](c2c(O)cc(O)c3c(=O)cc(-c4ccccc4Cl)oc23)[C@H](O)C1 [Alvocidib] | 181 | 150 nM | 18.8 | 20.2
CC(=O)[C@]1(O)Cc2c(O)c3c(c(O)c2[C@@H](O[C@H]2C[C@H](N)[C@H](O)[C@H](C)O2)C1)C(=O)c1ccccc1C3=O [Idarubicin] | 91.4 | 115 nM | 22 | 21
CNC(=O)c1cc(Oc2ccc(NC(=O)Nc3ccc(Cl)c(C(F)(F)F)c3)cc2)ccn1 [Sorafenib] | 2950 | 3500 nM | 5.25 | 4.57
COc1cccc2c1C(=O)c1c(O)c3c(c(O)c1C2=O)C[C@@](O)(C(=O)CO)C[C@@H]3O[C@H]1C[C@H](N)[C@H](O)[C@H](C)O1 [Doxorubicin] | 205 | 148 nM | 17.9 | 19.6
Cc1ccc(Nc2nccc(N(C)c3ccc4c(C)n(C)nc4c3)n2)cc1S(N)(=O)=O [Pazopanib] | > 4170 | > 4170 nM | 0 | 0
CCNC(=O)c1noc(-c2cc(C(C)C)c(O)cc2O)c1-c1ccc(CN2CCOCC2)cc1 [NVP-AUY922] | 46.8 | 26.6 nM | 19.6 | 23
CO[C@H]1C[C@@H]2CC[C@@H](C)[C@@](O)(O2)C(=O)C(=O)N2CCCC[C@H]2C(=O)O[C@H]([C@H](C)C[C@@H]2CC[C@@H](OC(=O)C(C)(CO)CO)[C@H](OC)C2)CC(=O)[C@H](C)/C=C(\C)[C@@H](O)[C@@H](OC)C(=O)[C@H](C)C[C@H](C)/C=C/C=C/C=C/1C [Temsirolimus] | 3.9 | 4.02 nM | 14.6 | 14.4
O=P1(N(CCCl)CCCl)NCCCO1 (stereo unspecified) [Cyclophosphamide] | > 4170 | > 4170 nM | 0.0343 | 0
CO[C@H](C(=O)[C@@H](O)[C@@H](C)O)[C@@H]1Cc2cc3cc(O[C@H]4C[C@@H](O[C@@H]5C[C@@H](O)[C@H](O)[C@@H](C)O5)[C@H](O)[C@@H](C)O4)c(C)c(O)c3c(O)c2C(=O)[C@H]1O[C@H]1C[C@@H](O[C@@H]2C[C@@H](O)[C@@H](O[C@@H]3C[C@](C)(O)[C@H](O)[C@@H](C)O3)[C@@H](C)O2)[C@H](O)[C@@H](C)O1 [Plicamycin] | 67.9 | 56 nM | 23.4 | 24.2
COc1cc2c(Oc3ccc4[nH]c(C)cc4c3F)ncnc2cc1OCCCN1CCCC1 [Cediranib] | > 4170 | > 4170 nM | 0.0221 | 0
C1CN1c1nc(N2CC2)nc(N2CC2)n1 [Triethylenemelamine] | > 4170 | > 4170 nM | 0 | 0
C=C1C[C@@H]2[C@H](CC[C@]3(C)C(=O)CC[C@@H]23)[C@@]2(C)C=CC(=O)C=C12 [Exemestane] | > 4170 | > 4170 nM | 0 | 0
